This experiment relates to BDF1 mice, B16 melanoma ip, median survival T/C. Description: NCI In Vivo Anticancer Drug Screen. Data for tumor model B16 Melanoma (intraperitoneal) in B6D2F1 (BDF1) mice. The following applies: endpoint: median survival time, higher = longer survival. The method in brief: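 Transplantable tumor model; survival or tumor size measured; reported as T/C, treated over vehicle control.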

[1] abbreviates: dose: 50.0 mg/kg/injection, schedule: Q04DX003 (ip), vehicle: Klucel (hydroxypropylcellulose) (HPC).
Setting [2] is: dose: 100.0 mg/kg/injection, schedule: Q04DX003 (ip), vehicle: Klucel (hydroxypropylcellulose) (HPC).
[3] abbreviates: dose: 25.0 mg/kg/injection, schedule: Q01DX009 (ip), vehicle: saline.
[4] abbreviates: dose: 50.0 mg/kg/injection, schedule: Q01DX009 (ip), vehicle: saline.
[5] abbreviates: dose: 100.0 mg/kg/injection, schedule: Q01DX009 (ip), vehicle: saline.
Setting [6] is: dose: 200.0 mg/kg/injection, schedule: Q01DX009 (ip), vehicle: saline.
Setting [7] is: dose: 400.0 mg/kg/injection, schedule: Q01DX009 (ip), vehicle: saline.
[8] abbreviates: dose: 12.5 mg/kg/injection, schedule: Q01DX009 (ip), vehicle: saline with Tween-80.
Where [9] appears, read: dose: 25.0 mg/kg/injection, schedule: Q01DX009 (ip), vehicle: saline with Tween-80.
Where [10] appears, read: dose: 50.0 mg/kg/injection, schedule: Q01DX009 (ip), vehicle: saline with Tween-80.
Where [11] appears, read: dose: 6.25 mg/kg/injection, schedule: Q01DX009 (ip), vehicle: saline with Tween-80.
Setting [12] is: dose: 6.25 mg/kg/injection, schedule: Q01DX009 (ip), vehicle: saline.
[13] abbreviates: dose: 12.5 mg/kg/injection, schedule: Q01DX009 (ip), vehicle: saline.
[14] abbreviates: dose: 50.0 mg/kg/injection, schedule: Q04DX003 (ip), vehicle: saline with Tween-80.
Setting [15] is: dose: 100.0 mg/kg/injection, schedule: Q04DX003 (ip), vehicle: saline with Tween-80.
[16] abbreviates: dose: 100.0 mg/kg/injection, schedule: Q01DX009 (ip), vehicle: saline with Tween-80.
Where [17] appears, read: dose: 100.0 mg/kg/injection, schedule: Q01DX009 (ip), vehicle: Klucel (hydroxypropylcellulose) (HPC).
Where [18] appears, read: dose: 200.0 mg/kg/injection, schedule: Q01DX009 (ip), vehicle: Klucel (hydroxypropylcellulose) (HPC).
Where [19] appears, read: dose: 400.0 mg/kg/injection, schedule: Q01DX009 (ip), vehicle: Klucel (hydroxypropylcellulose) (HPC).
Where [20] appears, read: dose: 50.0 mg/kg/injection, schedule: Q01DX009 (ip), vehicle: Klucel (hydroxypropylcellulose) (HPC).

This note sets out measurements from PubChem BioAssay AID192 (DTP/NCI, 2004).

Where “and” joins values, the source holds several entries; their conditions need not be identical. Identical values can stand only once. Toxic doses and inconclusive results are not listed.

With `Nc1ccc(C(=O)O)c(O)c1`, the T/C was 98 % of control (dose: 9.3 mg/kg/injection, schedule: Q01DX009 (ip), vehicle: saline with Tween-80); 99 % of control (dose: 18.7 mg/kg/injection, schedule: Q01DX009 (ip), vehicle: saline with Tween-80); 98 % of control (dose: 37.5 mg/kg/injection, schedule: Q01DX009 (ip), vehicle: saline with Tween-80); 89 % of control (dose: 75.0 mg/kg/injection, schedule: Q01DX009 (ip), vehicle: saline with Tween-80).

On to `Oc1ccc2ccc3[nH]cnc3c2c1`, for which the T/C is, setting by setting: under setting [1], 100 % of control; under setting [2], 105 % of control.

Consider `N[C@@H](Cc1ccc(O)c(O)c1)C(=O)O`, for which the T/C reads like this: under setting [3], 109 % of control; under setting [4], 98 % of control and 100 % of control; under setting [5], 102 % of control and 104 % of control; under setting [6], 102 % of control and 108 % of control; under setting [7], 97 % of control and 104 % of control.

For the compound `COc1ccc(NC(=O)Nc2cc(C(F)(F)F)ccc2Cl)cc1`, the T/C reads like this: (dose: 8.0 mg/kg/injection, schedule: Q01DX009 (ip), vehicle: saline with Tween-80) 100 % of control; (dose: 12.0 mg/kg/injection, schedule: Q01DX009 (ip), vehicle: saline with Tween-80) 100 % of control; under setting [8], 215 % of control; (dose: 18.0 mg/kg/injection, schedule: Q01DX009 (ip), vehicle: saline with Tween-80) 104 % of control; under setting [9], 194 % of control; under setting [10], 218 % of control.

As for `CSc1nc(N)cc(NC(=O)CCl)n1`, the T/C runs as follows: under setting [11], 109 % of control; under setting [8], 97 % of control; under setting [9], 89 % of control and 118 % of control; under setting [10], 97 % of control and 120 % of control.

Take `O=[N+]([O-])c1ccc(/C=C/c2ccccc2)c([N+](=O)[O-])c1`: the T/C is, setting by setting: under setting [2], 97 % of control; (dose: 200.0 mg/kg/injection, schedule: Q04DX003 (ip), vehicle: Klucel (hydroxypropylcellulose) (HPC)) 96 % of control; (dose: 400.0 mg/kg/injection, schedule: Q04DX003 (ip), vehicle: Klucel (hydroxypropylcellulose) (HPC)) 97 % of control.

For the compound `CNCCCN(C)CCCNC`, the T/C under setting [12] is 121 % of control; the T/C under setting [13] is 109 % of control; the T/C under setting [3] is 96 % of control and 111 % of control.

For the compound `O=C1Cc2cc3c(cc2C=C2CCCN12)OCO3`, the T/C was 117 % of control (dose: 12.5 mg/kg/injection, schedule: Q01DX009 (ip), vehicle: water); 108 % of control (dose: 25.0 mg/kg/injection, schedule: Q01DX009 (ip), vehicle: water); 102 % of control (dose: 50.0 mg/kg/injection, schedule: Q01DX009 (ip), vehicle: water); 107 % of control (dose: 100.0 mg/kg/injection, schedule: Q01DX009 (ip), vehicle: water).

With `OC(C#Cc1ccccc1)c1ccccc1` (stereo unspecified), the T/C by setting is: under setting [14], 108 % of control; under setting [15], 97 % of control; (dose: 200.0 mg/kg/injection, schedule: Q04DX003 (ip), vehicle: saline with Tween-80) 98 % of control.

For the compound `CCN(CC)CCOC(=O)c1cccnc1`, the T/C is, setting by setting: under setting [3], 100 % of control; under setting [4], 105 % of control; under setting [5], 102 % of control; under setting [6], 102 % of control; under setting [7], 100 % of control.

Turning to `NCCC(O)C(=O)NC1CC(N)C(OC2OC(CO)C(O)C(O)C2N)C(OC2OC(CO)C(O)C2O)C1O` (stereo unspecified), the T/C was 122 % of control (dose: 10.0 mg/kg/injection, schedule: Q01DX009 (ip), vehicle: saline) and 124 % of control (dose: 20.0 mg/kg/injection, schedule: Q01DX009 (ip), vehicle: saline).

Consider `CCC(C)OC(N)=O` (stereo unspecified), for which the T/C under setting [5] is 123 % of control.

Regarding `CO[C@H](/C(C)=C/C=C/C(C)=C/c1coc(C)n1)[C@H](C)[C@H]1C[C@@H](O)[C@@]2(C)O[C@H]2/C=C/[C@@H](C)[C@@H]2C[C@@H](CC(=O)O2)C[C@H]2O[C@@H]2C(=O)O1`, the T/C (dose: 0.4 mg/kg/injection, schedule: Q01DX009 (ip), vehicle: Klucel (hydroxypropylcellulose) (HPC)) is 153 % of control and the T/C (dose: 0.5 mg/kg/injection, schedule: Q01DX009 (sc), vehicle: Klucel (hydroxypropylcellulose) (HPC)) is 181 % of control.

Consider `C=CCSC(C)CC` (stereo unspecified), for which the T/C is 108 % of control under setting [9], 119 % of control under setting [10] and 107 % of control under setting [16].

With `C=CCN1CCCC1=O`, the T/C reads like this: (dose: 100.0 mg/kg/injection, schedule: Q04DX003 (ip), vehicle: saline) 102 % of control; (dose: 200.0 mg/kg/injection, schedule: Q04DX003 (ip), vehicle: saline) 95 % of control; (dose: 400.0 mg/kg/injection, schedule: Q04DX003 (ip), vehicle: saline) 100 % of control.

With `CC(C)(C)C1CC(C(F)(F)F)(C(F)(F)F)OS(=O)O1` (stereo unspecified), the T/C (dose: 1.56 mg/kg/injection, schedule: Q04DX003 (ip), vehicle: saline) was 102 % of control; the T/C (dose: 3.13 mg/kg/injection, schedule: Q04DX003 (ip), vehicle: saline) was 115 % of control; the T/C (dose: 6.25 mg/kg/injection, schedule: Q04DX003 (ip), vehicle: saline) was 105 % of control.

For the compound `COc1cc2c(c(OC)c1OC)-c1ccc(OC)c(=O)cc1[C@@H](N)CC2`, the T/C (dose: 0.31 mg/kg/injection, schedule: Q01DX009 (ip), vehicle: saline) was 120 % of control; the T/C (dose: 2.5 mg/kg/injection, schedule: Q01DX009 (ip), vehicle: Klucel (hydroxypropylcellulose) (HPC)) was 89 % of control; the T/C (dose: 5.0 mg/kg/injection, schedule: Q01DX009 (ip), vehicle: Klucel (hydroxypropylcellulose) (HPC)) was 110 % of control.

Turning to `Cc1nc2ccccc2nc1CI`, the T/C is, setting by setting: (dose: 0.75 mg/kg/injection, schedule: Q01DX009 (ip), vehicle: saline with Tween-80) 106 % of control; (dose: 1.5 mg/kg/injection, schedule: Q01DX009 (ip), vehicle: saline with Tween-80) 93 % of control; (dose: 3.0 mg/kg/injection, schedule: Q01DX009 (ip), vehicle: saline with Tween-80) 106 % of control; (dose: 6.0 mg/kg/injection, schedule: Q01DX009 (ip), vehicle: saline with Tween-80) 93 % of control; under setting [11], 91 % of control.

Turning to `CCCCCCCCCCCCCCCCN(C(=S)c1ccccc1)c1ccccc1`, the T/C is, setting by setting: under setting [17], 94 % of control; under setting [18], 95 % of control; under setting [19], 97 % of control.

For the compound `CCNC(=O)OCc1c(COC(=O)NCC)c(-c2ccc(Cl)c(Cl)c2)n2c1CCC2`, the T/C was 122 % of control under setting [11] and 90 % of control under setting [9].

As for `CN(C)CCCNC(=S)S`, the T/C was 100 % of control under setting [12]; 97 % of control under setting [13]; 111 % of control (dose: 12.5 mg/kg/injection, schedule: Q04DX003 (ip), vehicle: saline); 110 % of control under setting [3]; 111 % of control (dose: 25.0 mg/kg/injection, schedule: Q04DX003 (ip), vehicle: saline); 94 % of control (dose: 50.0 mg/kg/injection, schedule: Q04DX003 (ip), vehicle: saline).

As to `CCCCC(C)(C(=O)OCC)C(=O)OCC`, the T/C was 108 % of control (dose: 12.5 mg/kg/injection, schedule: Q01DX009 (ip), vehicle: Klucel (hydroxypropylcellulose) (HPC)); 101 % of control (dose: 25.0 mg/kg/injection, schedule: Q01DX009 (ip), vehicle: Klucel (hydroxypropylcellulose) (HPC)); 102 % of control under setting [20]; 101 % of control under setting [17]; 102 % of control under setting [18]; 94 % of control under setting [19].

As to `CCN(CC)S(=O)(=O)c1ccc(OC)c(N)c1`, the T/C runs as follows: under setting [9], 107 % of control; under setting [10], 100 % of control; under setting [14], 104 % of control; under setting [16], 105 % of control; under setting [15], 104 % of control.

Take `COc1ccc(C(C#N)N2CCOCC2)cc1` (stereo unspecified): the T/C is 89 % of control under setting [20], 95 % of control under setting [1] and 97 % of control under setting [2].
